Measured values from paper PMC7316778 (Nature Communications, 2020).
Values joined by “and” are separate entries in the source; they are usually repeats but may differ in a detail not shown here. Equal values may be shown once. Read-outs that look alike come from different tables or passages of the source.

Columns and labels:
MAP3K3 (MEKK3) = MAP3K3 (MEKK3) (Homo sapiens, UniProt Q99759); assay: SelectScreen kinase assay
Protocol: (§1) Selectivity profiling assays were performed by the Invitrogen SelectScreen™ Services. […] The concentration of ATP was selected to be equal to the KM, unless indicated otherwise.

PAK4 = PAK4 (Homo sapiens, UniProt O96013); assay: SelectScreen kinase assay
Chain of PAK4 (O96013 whole entry): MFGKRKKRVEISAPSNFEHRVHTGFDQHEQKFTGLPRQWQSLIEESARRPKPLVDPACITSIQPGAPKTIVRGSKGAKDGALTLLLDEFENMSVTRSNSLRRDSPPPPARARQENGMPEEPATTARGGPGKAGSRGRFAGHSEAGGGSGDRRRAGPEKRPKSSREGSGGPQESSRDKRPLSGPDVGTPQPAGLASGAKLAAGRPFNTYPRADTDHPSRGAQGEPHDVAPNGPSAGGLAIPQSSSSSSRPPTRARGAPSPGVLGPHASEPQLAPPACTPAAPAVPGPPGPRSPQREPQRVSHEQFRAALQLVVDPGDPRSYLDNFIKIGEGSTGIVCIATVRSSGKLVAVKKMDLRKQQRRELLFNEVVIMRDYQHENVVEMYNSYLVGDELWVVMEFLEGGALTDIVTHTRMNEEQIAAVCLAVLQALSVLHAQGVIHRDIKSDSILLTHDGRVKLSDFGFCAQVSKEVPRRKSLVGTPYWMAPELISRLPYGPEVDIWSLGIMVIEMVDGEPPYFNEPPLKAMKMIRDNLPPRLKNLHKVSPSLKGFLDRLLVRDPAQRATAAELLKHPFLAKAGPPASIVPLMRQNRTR
Protocol: as §1

FES (FPS) = FES (FPS) (Homo sapiens, UniProt P07332); assay: SelectScreen kinase assay
Chain of FES (FPS) (P07332 whole entry): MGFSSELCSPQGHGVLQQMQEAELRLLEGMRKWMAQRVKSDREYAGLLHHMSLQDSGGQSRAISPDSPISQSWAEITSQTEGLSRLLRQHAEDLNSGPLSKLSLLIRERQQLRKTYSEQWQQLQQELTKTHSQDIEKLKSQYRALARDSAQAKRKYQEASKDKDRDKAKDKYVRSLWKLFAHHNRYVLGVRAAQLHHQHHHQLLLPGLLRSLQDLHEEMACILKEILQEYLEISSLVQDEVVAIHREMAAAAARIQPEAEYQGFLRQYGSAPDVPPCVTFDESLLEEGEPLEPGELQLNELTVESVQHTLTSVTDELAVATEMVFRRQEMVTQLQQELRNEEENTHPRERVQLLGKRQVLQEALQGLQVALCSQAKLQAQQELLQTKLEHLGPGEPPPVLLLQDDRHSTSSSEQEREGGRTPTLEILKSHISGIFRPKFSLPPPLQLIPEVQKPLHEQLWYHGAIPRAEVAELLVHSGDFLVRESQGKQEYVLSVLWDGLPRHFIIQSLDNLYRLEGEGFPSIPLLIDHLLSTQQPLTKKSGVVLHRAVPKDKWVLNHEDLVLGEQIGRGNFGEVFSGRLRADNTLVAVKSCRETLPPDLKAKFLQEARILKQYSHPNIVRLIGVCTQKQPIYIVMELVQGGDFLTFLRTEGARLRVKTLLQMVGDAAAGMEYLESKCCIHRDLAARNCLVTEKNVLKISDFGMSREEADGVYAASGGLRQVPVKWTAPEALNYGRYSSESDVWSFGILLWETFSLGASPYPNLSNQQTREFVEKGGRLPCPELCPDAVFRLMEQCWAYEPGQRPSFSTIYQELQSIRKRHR
Protocol: as §1

[1] = molecular target: T1, endogenous FES^S700C in HL-60 cells (Homo sapiens, UniProt P07332, S700C); assay: Gel-based target engagement during neutrophil differentiation; assay type: cell-based; settings: 100 nM; Supplementary Figure 12b; individual replicates; listed as WEL028
T1 construct: endogenous in cells; host or cells: HL-60 FES^S700C clone, differentiated to macrophages or neutrophils
T1 sequence (P07332 whole entry S700C): as the sequence (P07332 whole entry) above, with S700C counted along it

CDK5/p25 = CDK5/p25 (Homo sapiens, UniProt Q00535); assay: SelectScreen kinase assay; settings: 1 h, 1 μM WEL028, 1 h preincubation
Protocol: as §1

STK38 (NDR) = STK38 (NDR) (Homo sapiens, UniProt Q15208); assay: SelectScreen kinase assay; settings: for Inhibition at 1 µM (%): LanthaScreen Binding
Chain of STK38 (NDR) (Q15208 whole entry): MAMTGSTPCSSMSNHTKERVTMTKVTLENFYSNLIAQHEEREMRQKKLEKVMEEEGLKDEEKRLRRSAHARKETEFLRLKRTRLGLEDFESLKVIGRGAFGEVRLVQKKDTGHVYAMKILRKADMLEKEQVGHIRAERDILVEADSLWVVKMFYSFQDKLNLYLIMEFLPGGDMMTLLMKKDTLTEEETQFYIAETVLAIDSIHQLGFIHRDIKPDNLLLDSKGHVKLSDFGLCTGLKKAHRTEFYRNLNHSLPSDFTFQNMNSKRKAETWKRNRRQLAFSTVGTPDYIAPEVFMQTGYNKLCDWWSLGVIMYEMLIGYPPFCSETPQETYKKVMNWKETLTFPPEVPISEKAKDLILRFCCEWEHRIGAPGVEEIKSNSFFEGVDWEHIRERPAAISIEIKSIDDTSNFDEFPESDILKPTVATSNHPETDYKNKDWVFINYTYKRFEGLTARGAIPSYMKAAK
Protocol: as §1

EPHA1 = EPHA1 (Homo sapiens, UniProt P21709); assay: SelectScreen kinase assay
Chain of EPHA1 (P21709 26-976): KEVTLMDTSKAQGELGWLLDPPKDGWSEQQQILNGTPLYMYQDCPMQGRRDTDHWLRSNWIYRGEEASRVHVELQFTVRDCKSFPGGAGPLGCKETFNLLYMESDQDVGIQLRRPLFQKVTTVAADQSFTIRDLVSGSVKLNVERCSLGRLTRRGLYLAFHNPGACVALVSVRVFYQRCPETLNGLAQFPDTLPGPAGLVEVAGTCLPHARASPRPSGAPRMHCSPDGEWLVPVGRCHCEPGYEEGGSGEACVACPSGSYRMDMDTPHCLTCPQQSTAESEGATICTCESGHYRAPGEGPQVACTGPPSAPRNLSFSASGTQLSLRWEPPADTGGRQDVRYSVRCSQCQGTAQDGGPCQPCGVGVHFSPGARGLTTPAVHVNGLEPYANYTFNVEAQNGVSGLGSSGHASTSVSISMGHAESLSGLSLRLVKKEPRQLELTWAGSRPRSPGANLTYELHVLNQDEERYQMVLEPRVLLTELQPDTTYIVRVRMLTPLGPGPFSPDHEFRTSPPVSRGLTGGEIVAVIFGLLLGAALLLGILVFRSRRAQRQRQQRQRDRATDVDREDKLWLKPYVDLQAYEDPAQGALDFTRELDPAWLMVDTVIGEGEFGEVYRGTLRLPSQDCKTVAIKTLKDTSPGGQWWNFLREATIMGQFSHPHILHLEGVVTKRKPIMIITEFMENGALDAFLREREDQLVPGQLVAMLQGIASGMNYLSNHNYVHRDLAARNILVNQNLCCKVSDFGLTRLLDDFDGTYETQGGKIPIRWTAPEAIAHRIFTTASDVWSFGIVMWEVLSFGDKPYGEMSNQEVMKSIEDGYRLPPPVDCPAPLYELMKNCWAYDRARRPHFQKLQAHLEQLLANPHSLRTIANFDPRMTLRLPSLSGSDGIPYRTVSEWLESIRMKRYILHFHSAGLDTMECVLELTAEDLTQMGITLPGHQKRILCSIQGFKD
Protocol: as §1

SRPK2 = SRPK2 (Homo sapiens, UniProt P78362); assay: SelectScreen kinase assay; settings: 1 h, 1 μM WEL028, 1 h preincubation
Protocol: as §1

MAPK13 (p38 delta) = molecular target: T2, MAPK13 (p38 delta) (Homo sapiens, UniProt O15264); assay: SelectScreen kinase assay
T2 sequence (O15264 1-365): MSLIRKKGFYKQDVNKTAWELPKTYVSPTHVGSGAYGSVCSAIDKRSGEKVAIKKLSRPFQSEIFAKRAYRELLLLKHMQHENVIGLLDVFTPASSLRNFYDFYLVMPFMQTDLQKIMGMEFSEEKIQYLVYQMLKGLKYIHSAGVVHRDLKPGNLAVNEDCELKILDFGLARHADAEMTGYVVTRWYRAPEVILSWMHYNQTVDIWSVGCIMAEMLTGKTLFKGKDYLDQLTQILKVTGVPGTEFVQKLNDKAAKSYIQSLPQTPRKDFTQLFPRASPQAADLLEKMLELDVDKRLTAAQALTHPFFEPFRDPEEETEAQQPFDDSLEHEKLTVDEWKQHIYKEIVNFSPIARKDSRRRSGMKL
Protocol: as §1

ZAP70 = ZAP70 (Homo sapiens, UniProt P43403); assay: SelectScreen kinase assay; settings: 1 h, 1 μM WEL028, 1 h preincubation
Protocol: as §1

CAMK2G (CaMKII gamma) = CAMK2G (CaMKII gamma) (Homo sapiens, UniProt Q13555); assay: SelectScreen kinase assay
Chain of CAMK2G (CaMKII gamma) (Q13555 whole entry): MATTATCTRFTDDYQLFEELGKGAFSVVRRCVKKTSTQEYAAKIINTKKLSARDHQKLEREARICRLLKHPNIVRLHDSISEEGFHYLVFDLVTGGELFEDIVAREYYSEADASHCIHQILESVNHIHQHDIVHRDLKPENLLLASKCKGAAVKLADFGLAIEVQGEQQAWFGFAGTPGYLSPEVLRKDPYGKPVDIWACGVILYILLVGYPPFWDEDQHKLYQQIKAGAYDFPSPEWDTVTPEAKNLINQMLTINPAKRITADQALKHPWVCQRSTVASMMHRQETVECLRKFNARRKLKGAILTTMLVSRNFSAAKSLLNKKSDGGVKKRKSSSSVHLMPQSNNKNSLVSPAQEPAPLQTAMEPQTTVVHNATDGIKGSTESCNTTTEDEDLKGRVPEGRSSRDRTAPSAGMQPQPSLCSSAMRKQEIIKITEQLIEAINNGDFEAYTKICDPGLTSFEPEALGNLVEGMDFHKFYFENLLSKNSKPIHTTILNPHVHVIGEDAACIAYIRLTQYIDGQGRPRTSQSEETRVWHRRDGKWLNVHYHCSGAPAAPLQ
Protocol: as §1

BMX = molecular target: T3, BMX (Homo sapiens, UniProt P51813); assay: SelectScreen kinase assay
T3 sequence (P51813 1-675): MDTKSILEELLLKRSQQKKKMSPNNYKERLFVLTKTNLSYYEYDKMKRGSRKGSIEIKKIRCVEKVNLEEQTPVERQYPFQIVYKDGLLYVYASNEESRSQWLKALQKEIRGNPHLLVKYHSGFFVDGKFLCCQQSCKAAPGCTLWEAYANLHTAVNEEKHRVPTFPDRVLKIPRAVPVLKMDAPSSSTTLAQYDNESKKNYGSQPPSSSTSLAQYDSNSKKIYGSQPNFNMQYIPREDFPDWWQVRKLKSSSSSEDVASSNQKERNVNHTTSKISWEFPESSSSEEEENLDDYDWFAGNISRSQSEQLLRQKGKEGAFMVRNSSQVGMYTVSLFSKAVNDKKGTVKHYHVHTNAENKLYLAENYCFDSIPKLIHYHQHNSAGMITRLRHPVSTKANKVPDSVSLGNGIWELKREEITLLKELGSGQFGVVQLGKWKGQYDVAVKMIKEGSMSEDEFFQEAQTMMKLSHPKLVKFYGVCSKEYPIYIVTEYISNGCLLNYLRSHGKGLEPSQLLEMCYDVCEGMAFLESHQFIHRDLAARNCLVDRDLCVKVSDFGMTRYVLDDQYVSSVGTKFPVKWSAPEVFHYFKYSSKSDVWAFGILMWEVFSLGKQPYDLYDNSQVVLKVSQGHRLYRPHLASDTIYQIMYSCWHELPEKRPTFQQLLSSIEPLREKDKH
Protocol: as §1

ADRBK1 (GRK2) = molecular target: T4, ADRBK1 (GRK2) (Homo sapiens, UniProt P25098); assay: SelectScreen kinase assay; settings: for Inhibition at 1 µM (%): ADRBK1 (GRK2), ZLYTE, ATP Km app
T4 sequence (P25098 1-689): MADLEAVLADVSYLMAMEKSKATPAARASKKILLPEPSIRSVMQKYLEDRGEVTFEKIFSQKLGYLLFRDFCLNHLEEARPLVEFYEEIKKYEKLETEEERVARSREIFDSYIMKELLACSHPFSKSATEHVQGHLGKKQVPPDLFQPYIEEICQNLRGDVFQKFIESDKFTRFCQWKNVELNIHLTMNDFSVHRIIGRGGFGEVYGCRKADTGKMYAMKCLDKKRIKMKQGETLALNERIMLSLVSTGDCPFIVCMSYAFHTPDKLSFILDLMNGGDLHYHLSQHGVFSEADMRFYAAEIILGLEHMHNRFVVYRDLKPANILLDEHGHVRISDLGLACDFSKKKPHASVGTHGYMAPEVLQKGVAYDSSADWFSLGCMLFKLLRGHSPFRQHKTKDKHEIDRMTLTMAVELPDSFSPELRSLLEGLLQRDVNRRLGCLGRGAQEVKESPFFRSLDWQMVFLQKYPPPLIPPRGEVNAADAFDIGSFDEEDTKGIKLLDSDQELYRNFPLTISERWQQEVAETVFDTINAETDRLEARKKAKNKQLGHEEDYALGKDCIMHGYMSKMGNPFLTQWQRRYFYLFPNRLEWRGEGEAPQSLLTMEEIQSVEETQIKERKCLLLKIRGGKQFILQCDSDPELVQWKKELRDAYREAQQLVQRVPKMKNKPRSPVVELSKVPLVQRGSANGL
Protocol: as §1

KIT = KIT (Homo sapiens, UniProt P10721); assay: SelectScreen kinase assay
Chain of KIT (P10721 26-976): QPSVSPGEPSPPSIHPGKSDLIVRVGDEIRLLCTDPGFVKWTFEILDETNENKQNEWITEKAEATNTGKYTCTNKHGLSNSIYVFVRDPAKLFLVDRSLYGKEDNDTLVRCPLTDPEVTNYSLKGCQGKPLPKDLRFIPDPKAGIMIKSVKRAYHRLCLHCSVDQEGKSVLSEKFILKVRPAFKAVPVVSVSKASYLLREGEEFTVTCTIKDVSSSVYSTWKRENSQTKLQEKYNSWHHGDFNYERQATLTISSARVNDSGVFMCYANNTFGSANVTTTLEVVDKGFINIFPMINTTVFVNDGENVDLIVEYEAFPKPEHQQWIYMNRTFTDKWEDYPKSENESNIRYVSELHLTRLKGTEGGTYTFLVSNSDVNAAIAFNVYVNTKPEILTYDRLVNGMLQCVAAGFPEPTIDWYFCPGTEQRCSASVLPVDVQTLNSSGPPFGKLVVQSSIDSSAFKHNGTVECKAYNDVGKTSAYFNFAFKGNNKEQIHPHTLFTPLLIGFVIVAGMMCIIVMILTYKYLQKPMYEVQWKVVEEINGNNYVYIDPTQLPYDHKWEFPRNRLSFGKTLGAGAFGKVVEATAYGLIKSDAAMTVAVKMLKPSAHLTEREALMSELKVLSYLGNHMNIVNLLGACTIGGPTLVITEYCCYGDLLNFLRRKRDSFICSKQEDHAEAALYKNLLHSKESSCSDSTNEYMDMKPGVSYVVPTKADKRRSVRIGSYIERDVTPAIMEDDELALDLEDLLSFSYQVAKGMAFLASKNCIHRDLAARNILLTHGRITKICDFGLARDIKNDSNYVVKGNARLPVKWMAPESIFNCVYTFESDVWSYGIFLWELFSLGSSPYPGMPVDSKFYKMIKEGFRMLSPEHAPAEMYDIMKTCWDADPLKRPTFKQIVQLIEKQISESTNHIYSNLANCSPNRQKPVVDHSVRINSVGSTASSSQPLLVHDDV
Protocol: as §1

[2] = 1 h, 1 μM WEL028, 1 h preincubation

Chain of MAP3K3 (MEKK3) (Q99759 whole entry): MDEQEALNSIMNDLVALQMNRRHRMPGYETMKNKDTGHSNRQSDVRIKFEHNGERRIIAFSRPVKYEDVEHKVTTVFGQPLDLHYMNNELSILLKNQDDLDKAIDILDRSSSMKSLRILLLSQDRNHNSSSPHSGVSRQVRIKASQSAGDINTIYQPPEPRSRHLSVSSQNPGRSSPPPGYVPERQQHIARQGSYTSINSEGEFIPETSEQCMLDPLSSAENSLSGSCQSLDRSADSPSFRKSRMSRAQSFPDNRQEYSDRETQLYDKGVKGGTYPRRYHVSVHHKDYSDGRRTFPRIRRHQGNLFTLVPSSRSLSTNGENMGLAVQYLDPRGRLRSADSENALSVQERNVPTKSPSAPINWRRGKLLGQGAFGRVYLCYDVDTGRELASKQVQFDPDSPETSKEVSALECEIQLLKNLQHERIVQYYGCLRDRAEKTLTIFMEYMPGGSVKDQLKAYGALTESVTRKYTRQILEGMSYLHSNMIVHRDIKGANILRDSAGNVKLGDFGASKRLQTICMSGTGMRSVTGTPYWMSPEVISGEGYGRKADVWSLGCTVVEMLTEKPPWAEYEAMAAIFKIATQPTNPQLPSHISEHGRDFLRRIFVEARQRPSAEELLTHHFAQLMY

In the case of C#CCOc1ccc(Nc2ncc(Cl)c(Nc3ccccc3NC(=O)C=C)n2)c(OC)c1 [Compound 6], the inhibition at 1 µM (MAP3K3 (MEKK3); [2]) is reported as 7%, the inhibition at 1 µM (MAP3K3 (MEKK3); read-out: Inhibition at 1 µM (%), MAP3K3 (MEKK3), 1 µM, LanthaScreen Binding) is reported as 8% and the inhibition at 1 µM (PAK4; [2]) is reported as -4%. For the same compound, the “Inhibition at 1 µM (%)” value (PAK4; PAK4, 1 µM, ZLYTE, ATP Km app, listed as WEL028, 1 µM) was -8% and 1%, the inhibition at 1 µM (FES (FPS); [2]) was 15% and the “Inhibition at 1 µM (%)” value (FES (FPS); FES (FPS), 1 µM, ZLYTE, ATP Km app, listed as WEL028, 1 µM) was 17%. For the same compound, the inhibition at 1 µM (FES (FPS); read-out: Inhibition at 1 µM (%), FES (FPS), 1 µM, ZLYTE, ATP Km app) was 12%, the “Relative FES labeling (%)” value [1] was 10.1064% and 13.5252% and 6.003% and the inhibition at 1 µM (CDK5/p25) was 2%. The “Inhibition at 1 µM (%)” value (STK38 (NDR)) was 2%, the “Inhibition at 1 µM (%)” value (STK38 (NDR); listed as WEL028, 1 µM) was 6% and the inhibition at 1 µM (STK38 (NDR); [2]) was 4%. The inhibition at 1 µM (EPHA1; 1 h) was 5%, the inhibition at 1 µM (EPHA1; read-out: Inhibition at 1 µM (%)) was 5% and the inhibition at 1 µM (SRPK2) was -1%. The inhibition at 1 µM (MAPK13 (p38 delta); [2]) was 5%, the “Inhibition at 1 µM (%)” value (MAPK13 (p38 delta); MAPK13 (p38 delta), 1 µM, ZLYTE, ATP Km app, listed as WEL028, 1 µM) was 6% and the inhibition at 1 µM (MAPK13 (p38 delta); read-out: Inhibition at 1 µM (%), MAPK13 (p38 delta), 1 µM, ZLYTE, ATP Km app) was 4%. The inhibition at 1 µM (ZAP70) was 2%, the inhibition at 1 µM (CAMK2G (CaMKII gamma); [2]) was 3% and the “Inhibition at 1 µM (%)” value (CAMK2G (CaMKII gamma); CAMK2G (CaMKII gamma), 1 µM, LanthaScreen Binding) was 13%. The inhibition at 1 µM (BMX; [2]) was 16%, the “Inhibition at 1 µM (%)” value (BMX; BMX, 1 µM, ZLYTE, ATP Km app, listed as WEL028, 1 µM) was 18% and the inhibition at 1 µM (BMX; read-out: Inhibition at 1 µM (%), BMX, 1 µM, ZLYTE, ATP Km app) was 14%. For the same compound, the inhibition at 1 µM (ADRBK1 (GRK2); [2]) was 4%, the “Inhibition at 1 µM (%)” value (ADRBK1 (GRK2)) was 2% and the “Inhibition at 1 µM (%)” value (ADRBK1 (GRK2); listed as WEL028, 1 µM) was 6%. For the same compound, the inhibition at 1 µM (KIT; [2]) was 18%, the “Inhibition at 1 µM (%)” value (KIT; KIT, 1 µM, ZLYTE, ATP Km app, listed as WEL028, 1 µM) was 16% and the inhibition at 1 µM (KIT; read-out: Inhibition at 1 µM (%), KIT, 1 µM, ZLYTE, ATP Km app) was 21%.
